Measured values from PubChem BioAssay AID1919010 (Molecular Pharmacology Branch, DTP, NCI, 2023).

Test system: Hs578T complex spheroid growth, percent test/control
Assay: Anticancer human tumor Hs578T cell line growth inhibition [AhR];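 also: luminescent viability signal as a proxy for spheroid growth; spheroids exposed to agents for one week after three days of growth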
Conditions: for IC50: curve of first compound; for viability, T/C: stronger effect = lower value
Text: Multicellular complex tumor spheroid response to aryl hydrocarbon receptor antagonists in combination with a variety of drugs and investigational agents in selected tumor cell lines
The current study was undertaken to assess response to aryl hydrocarbon receptor antagonists in combination with standard-of-care drugs and investigational agents in solid tumor complex spheroid models. Complex spheroids include a stromal component modeled by human endothelial cells (HUVEC) and fibroblasts modeled by human mesenchymal stem cells (MSCs). The concentration ranges selected for each drug and investigational agent were based upon clinically achievable concentrations if the clinical Cmax of the agent was known.
Compounds. The drugs and investigational agents: BAY 2416964 (NSC825713), GNF351 (NSC835774), CH-223191 (NSC835775), CPI-455 (NSC825282), aza-TdCyd (NSC777586), decitabine (NSC127716), belinostat (NSC758774), entinostat (NSC756642), pevonedistat (NSC761192), tazemetostat (NSC777109), talazoparib (NSC765396), olaparib (NSC753686), selinexor (NSC780203), nedisertib (M3814, NSC802822), bortezomib (NSC756655), venetoclax (NSC766270), doxorubicin (NSC123127), elimusertib (BAY189344, NSC800525), ceralasertib (AZD6738, NSC777638), TAK-243 (NSC785004), alisertib (NSC759677), etoposide (NSC141540), topotecan (NSC609699), eribulin (NSC707389), gemcitabine (NSC613327), carboplatin (NSC241240), cisplatin (NSC119875), and SN-38 (NSC673596) were obtained from the National Cancer Institute (NCI) Developmental Therapeutics Program Chemical Repository (32). The FDA-approved anticancer drug set is available from the Developmental Therapeutics Program at https://dtp.cancer.gov/organization/dscb/obtaining/available plates.htm. […] The stock solutions were prepared in dimethyl sulfoxide (DMSO, Sigma-Aldrich, St. Louis, MO, cat. D2650), except for the platinum compounds which were prepared in saline (Quality Biological, Gaithersburg, MD, cat. 114-055-101), at 800-fold the tested concentration and stored at -70 degrees C prior to their use. All drugs and investigational agents were tested over a range starting from a high concentration at or near the clinical Cmax and decreasing in half-log increments. If the clinical Cmax for an agent had not been determined, the highest concentration tested was 10 microM (Table 1).
Cell Culture. All cells were maintained in an incubator at 37 degrees C and 5% CO2 with 95% humidity. The PDC lines were cultured according to standard operating procedures established by the NCI PDMR (https://pdmr.cancer.gov). Briefly, all PDCs were thawed and cultured in Matrigel-coated flasks prepared with a working solution of 1X Ham's F-12 nutrient mix, without supplementation (Invitrogen, Waltham, MA, cat. 11765054), 100 U/mL penicillin-streptomycin (Invitrogen, cat. 15140122), and 2.5% Matrigel (Corning Inc., Corning, NY, cat. 354248) for the first three passages. All PDCs were cultured in complete DMEM/F-12 media containing advanced DMEM/F-12 (Invitrogen, cat. 12634028), 4.9% defined fetal bovine serum, heat inactivated (HyClone Laboratories Inc., Logan, UT, cat. SH30070.03HI), 389 ng/mL hydrocortisone (Sigma-Aldrich, cat. H4001), 9.7 ng/mL human EGF recombinant protein (Invitrogen, cat. PHG0313), 23.4 microg/mL adenine (Sigma-Aldrich, cat. A2786), 97.3 U/mL penicillin-streptomycin (Invitrogen, cat. 15140122), 1.9 mM L-glutamine (Invitrogen, cat. 25030081), and 9.7 microM Y-27632 dihydrochloride (Tocris Bioscience, Bristol, United Kingdom, cat. 1254). The PDCs were cultured in complete DMEM/F12 media without 10 microM Y-27632 dihydrochloride for at least two passages prior to the screen. The established cell lines NCI-H1341 and […] were cultured in DMEM/F-12, HEPES (Invitrogen, cat. 11330032), 5% defined fetal bovine serum (HyClone Laboratories Inc., cat. SH30070.03), ITS premix universal culture supplement [insulin (5 microg/mL), transferrin (5 microg/mL), and selenious acid (5 ng/mL)] […]

Question: Which results are given for `CC1(C)CCC(CN2CCN(c3ccc(C(=O)NS(=O)(=O)c4ccc(NCC5CCOCC5)c([N+](=O)[O-])c4)c(Oc4cnc5[nH]ccc5c4)c3)CC2)=C(c2ccc(Cl)cc2)C1` + CC(CO)NC(=O)c1cc(-c2ccc(Cl)cc2)nn(-c2cnn(C)c2)c1=O?
Answer: IC50 (second compound 0.1 µM): > 10 µM; IC50 (second compound 0.316 µM): > 10 µM; IC50 (second compound 1 µM): > 10 µM; IC50 (second compound 3.16 µM): > 10 µM; IC50 (second compound 10 µM): > 10 µM; viability, T/C (second compound 0.1 µM, first compound 0.0316 µM): 109%; viability, T/C (second compound 0.1 µM, first compound 0.1 µM): 107%; viability, T/C (second compound 0.1 µM, first compound 0.316 µM): 107%; viability, T/C (second compound 0.1 µM, first compound 1 µM): 101%; viability, T/C (second compound 0.1 µM, first compound 3.16 µM): 106%; viability, T/C (second compound 0.1 µM, first compound 10 µM): 84.3%; viability, T/C (second compound 0.316 µM, first compound 0.0316 µM): 110%; viability, T/C (second compound 0.316 µM, first compound 0.1 µM): 99.7%; viability, T/C (second compound 0.316 µM, first compound 0.316 µM): 110%; viability, T/C (second compound 0.316 µM, first compound 1 µM): 91.2%; viability, T/C (second compound 0.316 µM, first compound 3.16 µM): 93%; viability, T/C (second compound 0.316 µM, first compound 10 µM): 96.3%; viability, T/C (second compound 1 µM, first compound 0.0316 µM): 115%; viability, T/C (second compound 1 µM, first compound 0.1 µM): 122%; viability, T/C (second compound 1 µM, first compound 0.316 µM): 114%; viability, T/C (second compound 1 µM, first compound 1 µM): 98.3%; viability, T/C (second compound 1 µM, first compound 3.16 µM): 109%; viability, T/C (second compound 1 µM, first compound 10 µM): 80%; viability, T/C (second compound 3.16 µM, first compound 0.0316 µM): 108%; viability, T/C (second compound 3.16 µM, first compound 0.1 µM): 111%; viability, T/C (second compound 3.16 µM, first compound 0.316 µM): 110%; viability, T/C (second compound 3.16 µM, first compound 1 µM): 99.7%; viability, T/C (second compound 3.16 µM, first compound 3.16 µM): 102%; viability, T/C (second compound 3.16 µM, first compound 10 µM): 88.7%; viability, T/C (second compound 10 µM, first compound 0.0316 µM): 117%; viability, T/C (second compound 10 µM, first compound 0.1 µM): 96.9%; viability, T/C (second compound 10 µM, first compound 0.316 µM): 79.4%; viability, T/C (second compound 10 µM, first compound 1 µM): 86%; viability, T/C (second compound 10 µM, first compound 3.16 µM): 87.1%; viability, T/C (second compound 10 µM, first compound 10 µM): 91.8%

Question: With `Nc1ncn(C2CC(O)C(CO)S2)c(=O)n1` (stereo not given) + CC(CO)NC(=O)c1cc(-c2ccc(Cl)cc2)nn(-c2cnn(C)c2)c1=O as the compound, how does the IC50 (second compound 0.1 µM) read?
Answer: > 0.3 µM

Question: What about the IC50 (second compound 0.316 µM) of the same compound?
Answer: > 0.3 µM

Question: And the IC50 (second compound 1 µM)?
Answer: > 0.3 µM

Question: What about the IC50 (second compound 3.16 µM) of the same compound?
Answer: > 0.3 µM

Question: What about the IC50 (second compound 10 µM) of the same compound?
Answer: > 0.3 µM

Question: And the viability, T/C (second compound 0.1 µM, first compound 0.000949 µM)?
Answer: 115%

Question: And the viability, T/C (second compound 0.1 µM, first compound 0.003 µM)?
Answer: 124%

Question: What about the viability, T/C (second compound 0.1 µM, first compound 0.00949 µM) of the same compound?
Answer: 117%

Question: And the viability, T/C (second compound 0.1 µM, first compound 0.03 µM)?
Answer: 119%

Question: And the viability, T/C (second compound 0.1 µM, first compound 0.0949 µM)?
Answer: 115%

Question: What about the viability, T/C (second compound 0.1 µM, first compound 0.3 µM) of the same compound?
Answer: 98.6%

Question: And the viability, T/C (second compound 0.316 µM, first compound 0.000949 µM)?
Answer: 118%

Question: And the viability, T/C (second compound 0.316 µM, first compound 0.003 µM)?
Answer: 114%

Question: What about the viability, T/C (second compound 0.316 µM, first compound 0.00949 µM) of the same compound?
Answer: 128%

Question: And the viability, T/C (second compound 0.316 µM, first compound 0.03 µM)?
Answer: 110%

Question: What about the viability, T/C (second compound 0.316 µM, first compound 0.0949 µM) of the same compound?
Answer: 117%

Question: What about the viability, T/C (second compound 0.316 µM, first compound 0.3 µM) of the same compound?
Answer: 108%

Question: What about the viability, T/C (second compound 1 µM, first compound 0.000949 µM) of the same compound?
Answer: 112%

Question: And the viability, T/C (second compound 1 µM, first compound 0.003 µM)?
Answer: 110%

Question: What about the viability, T/C (second compound 1 µM, first compound 0.00949 µM) of the same compound?
Answer: 121%

Question: What about the viability, T/C (second compound 1 µM, first compound 0.03 µM) of the same compound?
Answer: 121%

Question: And the viability, T/C (second compound 1 µM, first compound 0.0949 µM)?
Answer: 122%

Question: What about the viability, T/C (second compound 1 µM, first compound 0.3 µM) of the same compound?
Answer: 118%

Question: And the viability, T/C (second compound 3.16 µM, first compound 0.000949 µM)?
Answer: 123%

Question: And the viability, T/C (second compound 3.16 µM, first compound 0.003 µM)?
Answer: 122%

Question: And the viability, T/C (second compound 3.16 µM, first compound 0.00949 µM)?
Answer: 116%

Question: And the viability, T/C (second compound 3.16 µM, first compound 0.03 µM)?
Answer: 116%

Question: And the viability, T/C (second compound 3.16 µM, first compound 0.0949 µM)?
Answer: 105%

Question: What about the viability, T/C (second compound 3.16 µM, first compound 0.3 µM) of the same compound?
Answer: 112%

Question: And the viability, T/C (second compound 10 µM, first compound 0.000949 µM)?
Answer: 113%

Question: What about the viability, T/C (second compound 10 µM, first compound 0.003 µM) of the same compound?
Answer: 104%

Question: And the viability, T/C (second compound 10 µM, first compound 0.00949 µM)?
Answer: 112%

Question: And the viability, T/C (second compound 10 µM, first compound 0.03 µM)?
Answer: 113%

Question: And the viability, T/C (second compound 10 µM, first compound 0.0949 µM)?
Answer: 110%

Question: And the viability, T/C (second compound 10 µM, first compound 0.3 µM)?
Answer: 104%
